Assay results taken from the supplement of paper PMC10307832.

Assays:
Assay in all cases: relative viability (nuclei count vs DMSO), 5 days (fraction); higher = more cells survive
[1] = compound: C/C(=N\NC(=S)N1CCC1)/C2=CC=CC=N2 + COc1cccc2cc(-c3nc([C@H]4CC[C@H](C(=O)O)CC4)n4ncnc(N)c34)[nH]c12 [OSI-027] (partner 0.5 µM)
How it was run: (§1)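 Lung cancer cell lines, seeded in 1536-well plates, were treated the following day by pin tool with a single drug or with five library-drug doses (not always all listed) in √10 steps on top of a fixed anchor-drug dose. Cells were fixed and nuclei stained in one step after 5 days, and nuclei were counted. Relative viability is the nuclei count for treated wells divided by that for vehicle wells, reported as medians of duplicate plates.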

[2] = compound: C/C(=N\NC(=S)N1CCC1)/C2=CC=CC=N2 + CS(=O)(=O)CCNCc1ccc(-c2ccc3ncnc(Nc4ccc(OCc5cccc(F)c5)c(Cl)c4)c3c2)o1 [Lapatinib] (partner 2 µM)
How it was run: as §1

[3] = compound: C/C(=N\NC(=S)N1CCC1)/C2=CC=CC=N2 + C[C@]1(O)C[C@@H](c2nc(-c3ccc4ccc(-c5ccccc5)nc4c3)c3c(N)nccn32)C1 [Linsitinib] (partner 1 µM)
How it was run: as §1

[4] = compound: C/C(=N\NC(=S)N1CCC1)/C2=CC=CC=N2 + Cc1nc(NC(=O)N2CCC[C@H]2C(N)=O)sc1-c1ccnc(C(C)(C)C(F)(F)F)c1 [Alpelisib] (partner 2 µM)
How it was run: as §1

Cell Line	relative viability ([1]; first compound 0.05 µM)	relative viability ([1]; first compound 0.1581 µM)	relative viability ([1]; first compound 0.5 µM)	relative viability ([1]; first compound 1.581 µM)	relative viability ([1]; first compound 5 µM)	relative viability ([2]; first compound 0.05 µM)	relative viability ([2]; first compound 0.1581 µM)	relative viability ([2]; first compound 0.5 µM)	relative viability ([2]; first compound 1.581 µM)	relative viability ([2]; first compound 5 µM)	relative viability ([3]; first compound 0.05 µM)	relative viability ([3]; first compound 0.1581 µM)	relative viability ([3]; first compound 0.5 µM)	relative viability ([3]; first compound 1.581 µM)	relative viability ([3]; first compound 5 µM)	relative viability ([4]; first compound 0.05 µM)	relative viability ([4]; first compound 0.1581 µM)	relative viability ([4]; first compound 0.5 µM)	relative viability ([4]; first compound 1.581 µM)	relative viability ([4]; first compound 5 µM)
NCI-H2405	0.26	0.238	0.229	0.226	0.24	0.251	0.236	0.263	0.25	0.281	0.193	0.207	0.31	0.225	0.223	0.179	0.198	0.276	0.202	0.199
NCI-H3122	0.138	0.0988	0.132	0.134	0.129	0.304	0.284	0.268	0.291	0.243	0.145	0.143	0.169	0.246	0.221	0.154	0.133	0.193	0.196	0.192
PC-3 [JPC-3]	0.271	0.301	0.265	0.25	0.214	0.267	0.27	0.259	0.228	0.229	0.647	0.973	0.469	0.313	0.311	0.556	1.03	0.341	0.282	0.208
PC-14	0.0306	0.0778	0.0467	0.041	0.0364	0.11	0.112	0.124	0.0912	0.0865	0.0952	0.125	0.12	0.0874	0.117	0.108	0.0754	0.067	0.0556	0.0881
RERF-LC-KJ	0.266	0.258	0.251	0.221	0.243	0.258	0.263	0.23	0.253	0.275	0.233	0.253	0.227	0.243	0.229	0.212	0.234	0.23	0.205	0.256
SK-LU-1	0.145	0.136	0.131	0.124	0.151	0.301	0.149	0.14	0.142	0.204	0.274	0.231	0.224	0.202	0.21	0.209	0.163	0.19	0.146	0.196
SK-MES-1	0.197	0.182	0.157	0.137	0.186	0.301	0.293	0.213	0.185	0.2	0.269	0.236	0.225	0.205	0.183	0.203	0.205	0.188	0.165	0.183
SW 1573	0.0449	0.0562	0.134	0.065	0.0544	0.164	0.17	0.182	0.118	0.109	0.0916	0.123	0.113	0.152	0.0935	0.107	0.155	0.169	0.1	0.0847
UMC-11	0.235	0.186	0.183	0.181	0.142	0.201	0.195	0.165	0.145	0.134	0.369	0.238	0.205	0.169	0.161	0.235	0.182	0.153	0.117	0.126
